According to patent publication US20220369641A1, “MOLECULAR COMPLEXES” (priority 2019, published 2022):
≈ marks a conversion by molar mass, not a printed value.

What was measured:
[1] = Thermodynamic (aqueous) solubility, 24 hours at 25° C., HPLC quantitation; format: physicochemical; settings: for solubility thermodynamic at 24 h: thermodynamic from solid
Description: The suspension was equilibrated at 25° C., on a Heidolph plate shaker set to 750 rpm for 24 hours. The pH of the sample solutions was periodically checked and, if required, adjusted with 0.2M NaOH to ensure that the desired pH was maintained (±0.05) throughout. The pH of the saturated solution after this time was measured and the suspension filtered through a glass fibre C filter (particle retention 1.2 μm) and diluted appropriately.
Quantitation was by HPLC with reference to a standard solution of approximately 0.15 mg/ml in 1:1 MeCN/H2O. Different volumes of the standard, diluted and undiluted sample solutions were injected.
Different volumes of the standard, diluted and undiluted sample solutions were injected. The solubility was calculated using the peak areas determined by integration of the peak found at the same retention time as the principal peak in the standard injection.
Analysis was performed on an Agilent HP1100 series system equipped with a diode array detector and using ChemStation software.

[2] = Intrinsic dissolution rate (IDR), Sirius inForm, compressed discs; format: physicochemical; settings: 37° C., pH 5.0 media, 1 hour, 6 mm disc
Description: IDR Method Ca. 40 mg material was compressed under 100 kg for 2 minutes to form non-disintegrating discs. The discs were then plugged with a bung so that only one surface was exposed to the media during analysis, and transferred to the dissolution apparatus (Sirius inForm). The volume of the assay was 40 ml and a stir speed of 225 rpm was used. Analysis was performed at 37° C. in pH 5.0 media for 1 hour with UV spectra collected every 30 seconds, using a 20 mm path length probe.

[3] = Media DI Water, pH 7.8, 25° C., 24 hours, final pH 5.24-5.42

Q: For `COc1c(Cl)ccc(Cl)c1C(=O)O` [Dicamba freeform, 3,6-Dichloro-2-methoxybenzoic acid], which solubility thermodynamic at 24 h ([1]; pH 4.0 acetic acid/sodium acetate media, aqueous buffer, pH 4.0 media (42.4 ml 0.1 M acetic acid mixed with 7.6 ml 0.1 M sodium acetate), 25° C., 24 hours, read-out: Thermodynamic solubility of second component) is on record?
A: The solubility thermodynamic at 24 h was greater than 13800 µg/mL.

Q: With `Nc1c(Cl)c(F)nc(OCC(=O)O)c1Cl` [Fluroxypyr freeform, Fluroxypyr] as the compound, how does the “IDR of second component” value [2] read?
A: Its value is 956.9 μg/min/cm^2.

Q: And the solubility thermodynamic at 24 h ([1]; 25 °C, pH 4.04, water)?
A: The solubility thermodynamic at 24 h was 290 µg/mL (≈ 1140 µM).

Q: Which results are given for `CCc1cc(C)cc(CC)c1-c1c(OC(=O)C(C)(C)C)n2n(c1=O)CCOCC2` [Pinoxaden freeform, [8-(2,6-diethyl-4-methylphenyl)-7-oxo-1,2,4,5-tetrahydropyrazolo[1,2-d][1,4,5]oxadiazepin-9-yl] 2,2-dimethylpropanoate]?
A: IDR of pinoxaden component [2]: 69.4 μg/min/cm^2; solubility thermodynamic at 24 h ([1]; aqueous buffer, pH 4.0 media (42.4 ml 0.1 M acetic acid mixed with 7.6 ml 0.1 M sodium acetate), 25° C., 24 hours, read-out: Thermodynamic solubility of pinoxaden component): 280 µg/mL (≈ 699 µM); solubility thermodynamic at 24 h ([1]; Media DI Water, 25° C., 24 hours, final pH 3.97-4.10, read-out: Thermodynamic solubility of pinoxaden component): ~230 µg/mL (≈ 574 µM)

Q: For “Pinoxaden:2,4-D (1:1) Molecular Complex [Example 3]”, which “Thermodynamic solubility of pinoxaden component” value [1, 3] is on record?
A: The value was 200 µg/mL.

Q: What about the “Thermodynamic solubility of second component” value [1, 3] of the same compound?
A: Its value is 120 µg/mL.
